Our source for the GI50 and TGI values is PubChem BioAssay (NCI).

Among the test systems are TK-10 renal; SK-MEL-2 melanoma; SK-MEL-28 melanoma; 786-0 renal; UACC-257 melanoma; K-562 leukemia; BT-549 breast; SK-OV-3 ovarian.
Assay in all cases: DTP human tumour cell line panel, 48 h

Values joined by “and” are separate entries in the source; they are usually repeats but may differ in a detail not shown here. Equal values may be shown once.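 1) Cells in 96-well plates. 2) Compound, 48 h, 5 concentrations. 3) Linear interpolation between surrounding doses. 4) Unreached endpoint = highest concentration. Abbreviation: GI50, concentration required for 50% inhibition of growth. TGI: concentration producing complete growth inhibition.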

Consider `C=C1C(=O)O[C@H]2[C@H]1CC/C(CNC(=O)/C=C/c1ccc(Br)cc1)=C\CC[C@@]1(C)O[C@@H]21`, for which the GI50 in the experiment on TK-10 renal is 1.24 µM; in the experiment with SK-MEL-2 melanoma it was 1.4 µM; in the experiment with SK-MEL-28 melanoma, 1.34 µM; in the experiment with 786-0 renal, 1.05 µM; with UACC-257 melanoma, 1.43 µM; with K-562 leukemia, 0.438 µM. For the same molecule, the GI50 with BT-549 breast is 1.14 µM; with SK-OV-3 ovarian, 3.89 µM. Also, the TGI was 2.58 µM in the experiment with TK-10 renal; 3.02 µM with SK-MEL-2 melanoma; 2.7 µM in the experiment with SK-MEL-28 melanoma; 2.45 µM with 786-0 renal; 2.97 µM with UACC-257 melanoma; above 33.4 µM with K-562 leukemia. The TGI in the experiment with BT-549 breast is 2.95 µM; with SK-OV-3 ovarian it was 12.5 µM.
For `COc1cc2c(cc1OC)C13CCN4C=C5CCOC6CC(=O)N2C1C6C5CC43` (centres undefined), the TGI with TK-10 renal, in the experiment with SK-MEL-2 melanoma, in the experiment on SK-MEL-28 melanoma, with 786-0 renal, in the experiment on UACC-257 melanoma and in the experiment with K-562 leukemia was above 100 µM each time. The TGI in the experiment with BT-549 breast and in the experiment on SK-OV-3 ovarian was above 100 µM throughout.
For the molecule `CC(=O)C1=C(O)C=C2Oc3c(C(=O)/C=C/c4cc(C(F)(F)F)cc(C(F)(F)F)c4)c(O)c(C)c(O)c3[C@]2(C)C1=O`, the GI50 is 0.587 µM in the experiment with TK-10 renal; 0.448 µM in the experiment with SK-MEL-2 melanoma; 0.747 µM in the experiment with SK-MEL-28 melanoma; 0.602 µM in the experiment with 786-0 renal; 0.728 µM in the experiment on UACC-257 melanoma; 0.498 µM in the experiment on K-562 leukemia. The GI50 is 0.492 µM in the experiment on BT-549 breast and 1.07 µM with SK-OV-3 ovarian. The TGI is 8.23 µM in the experiment with TK-10 renal; 1.27 µM in the experiment on SK-MEL-2 melanoma; 2.96 µM with SK-MEL-28 melanoma; 2.35 µM in the experiment with 786-0 renal; 4.54 µM in the experiment with UACC-257 melanoma; 15 µM in the experiment with K-562 leukemia. Besides, the figures for the TGI with BT-549 breast and with SK-OV-3 ovarian were 1.8 µM and 5.98 µM, respectively.
In the case of `Cc1ccccc1NC(=S)Nc1ccccn1`, the GI50 in the experiment with TK-10 renal, in the experiment with SK-MEL-2 melanoma, in the experiment on SK-MEL-28 melanoma, in the experiment with 786-0 renal, with UACC-257 melanoma and in the experiment with K-562 leukemia was above 100 µM each time. The GI50 in the experiment on BT-549 breast and in the experiment with SK-OV-3 ovarian was above 100 µM throughout. For the same molecule, the TGI in the experiment with TK-10 renal, with SK-MEL-2 melanoma, with SK-MEL-28 melanoma, with 786-0 renal, with UACC-257 melanoma and in the experiment on K-562 leukemia was above 100 µM each time. Moreover, the TGI in the experiment on BT-549 breast and in the experiment with SK-OV-3 ovarian was above 100 µM each time.
`Cc1c2cc[nH]c(=O)c2c(C)c2c1[nH]c1cc(OCCN3CCN(C)CC3)ccc12`: the GI50 is 2.73 µM in the experiment with TK-10 renal; 1.52 µM in the experiment on SK-MEL-2 melanoma; 1.5 µM in the experiment on SK-MEL-28 melanoma; 0.946 µM in the experiment on 786-0 renal; 2.51 µM with UACC-257 melanoma; 0.949 µM in the experiment with K-562 leukemia. Also, the GI50 in the experiment with BT-549 breast is 2.71 µM; in the experiment with SK-OV-3 ovarian, 0.614 µM. Besides, the TGI is 13.7 µM in the experiment with TK-10 renal; 3.43 µM in the experiment on SK-MEL-2 melanoma; 2.98 µM in the experiment on SK-MEL-28 melanoma; 5.09 µM with 786-0 renal; 7.72 µM in the experiment with UACC-257 melanoma; 10.7 µM with K-562 leukemia. Also, the concentration for total growth inhibition (TGI) in the experiment with BT-549 breast amounted to 11.4 µM; in the experiment on SK-OV-3 ovarian, 5.9 µM.
For the molecule `CCSc1nnc2c(-c3ccccc3)n[nH]c2n1`, the TGI in the experiment with TK-10 renal, with SK-MEL-2 melanoma, with SK-MEL-28 melanoma, in the experiment on 786-0 renal, in the experiment on UACC-257 melanoma and with K-562 leukemia was above 100 µM in each case. For the same molecule, the TGI with BT-549 breast and with SK-OV-3 ovarian was above 100 µM throughout.
Consider `CC(C)[C@](O)(c1ccc2cc(OC(F)F)c(OC(F)F)cc2c1)c1cn[nH]n1`, for which the GI50 was 17 µM and 12.6 µM in the experiment on TK-10 renal; 18.7 µM and 17.1 µM in the experiment with SK-MEL-2 melanoma; 18.5 µM and 19.6 µM in the experiment on SK-MEL-28 melanoma; 17.8 µM and 16.9 µM in the experiment on 786-0 renal; 21.5 µM and 21.8 µM with UACC-257 melanoma; 20.1 µM and 24.8 µM with K-562 leukemia. In addition, the GI50 with BT-549 breast is 15.6 µM and 13.3 µM; with SK-OV-3 ovarian, 14.6 µM and 17.7 µM. Also, the TGI was 38.4 µM and 35.7 µM in the experiment with TK-10 renal; 36.6 µM and 35 µM in the experiment with SK-MEL-2 melanoma; 36.9 µM and 40.8 µM with SK-MEL-28 melanoma; 39.4 µM and 39.9 µM in the experiment on 786-0 renal; 47.7 µM and 46.1 µM with UACC-257 melanoma; 66.3 µM and 80.7 µM in the experiment with K-562 leukemia. The TGI was 31.1 µM and 28.5 µM with BT-549 breast; 38.6 µM and 45.5 µM in the experiment with SK-OV-3 ovarian.
As to `COc1ccc2c(c1)C(=O)c1c-2n(CCCN)c(=O)c2ccccc12`, the GI50 is 0.116 µM with TK-10 renal; 0.82 µM in the experiment on SK-MEL-2 melanoma; 0.459 µM with SK-MEL-28 melanoma; 0.0196 µM in the experiment on 786-0 renal; 0.383 µM in the experiment on UACC-257 melanoma; below 0.01 µM in the experiment on K-562 leukemia. Further, the GI50 in the experiment on BT-549 breast is 0.82 µM; with SK-OV-3 ovarian it was below 0.0202 µM. Also, the TGI is 0.98 µM in the experiment with TK-10 renal; 2.67 µM in the experiment on SK-MEL-2 melanoma; 1.89 µM in the experiment with SK-MEL-28 melanoma; 0.31 µM in the experiment with 786-0 renal; 2.07 µM in the experiment on UACC-257 melanoma; 0.187 µM in the experiment with K-562 leukemia. Also, the TGI was 2.63 µM in the experiment on BT-549 breast and 0.0652 µM in the experiment on SK-OV-3 ovarian.
In the case of `COc1ccc(C#Cc2ccccc2C#CCCCCO)cc1`, the GI50 in the experiment with TK-10 renal is 16.7 µM; with SK-MEL-2 melanoma, 19.8 µM; in the experiment on SK-MEL-28 melanoma, 12.2 µM; in the experiment on 786-0 renal, 22.8 µM; with UACC-257 melanoma, 19.5 µM; with K-562 leukemia, 21.9 µM. Further, the values for the GI50 in the experiment with BT-549 breast and in the experiment on SK-OV-3 ovarian were 21.1 µM and 19.9 µM, respectively. In addition, the TGI with TK-10 renal worked out at 35.2 µM; in the experiment on SK-MEL-2 melanoma it was 38.9 µM; in the experiment on SK-MEL-28 melanoma, 24.8 µM; with 786-0 renal, 45.9 µM; in the experiment on UACC-257 melanoma, 35.8 µM; in the experiment on K-562 leukemia, 43.9 µM. Also, the TGI in the experiment with BT-549 breast was found to be 46.1 µM; in the experiment with SK-OV-3 ovarian, 39.7 µM.
`Cc1nc2sccn2c1/C=C1/C(=O)Nc2ccccc21`: the GI50 in the experiment on TK-10 renal is 6.55 µM; in the experiment on SK-MEL-2 melanoma, 5.73 µM; with SK-MEL-28 melanoma, above 28.5 µM; in the experiment on 786-0 renal, 15.1 µM; with UACC-257 melanoma, above 100 µM; with K-562 leukemia, above 100 µM. The GI50 in the experiment on BT-549 breast is 17.2 µM; in the experiment with SK-OV-3 ovarian it was 24 µM. The TGI in the experiment with TK-10 renal was above 78.1 µM; with SK-MEL-2 melanoma, above 100 µM; in the experiment with SK-MEL-28 melanoma, above 100 µM; in the experiment with 786-0 renal, above 100 µM; with UACC-257 melanoma, above 100 µM; with K-562 leukemia it was above 100 µM. Further, the figures for the TGI in the experiment on BT-549 breast and in the experiment with SK-OV-3 ovarian were above 100 µM and above 93.3 µM, respectively.

One may read the GI50 as the concentration giving 50% growth inhibition. Broadly, the TGI is the concentration giving total growth inhibition.
